Assay results from PMC9024338, “Bruceine H Mediates EGFR-TKI Drug Persistence in NSCLC by Notch3-Dependent β-Catenin Activating FOXO3a Signaling” (Frontiers in Oncology, 2022).
Values joined by “and” are separate entries in the source; they are usually repeats but may differ in a detail not shown here. Equal entries are not always repeated. Where two headings read alike, the source gives them in different places.

Assay: Preliminary pharmacokinetics in SD rats
Assay type: in vivo
Set-up: AUC (0-t), individual rats No1-No3 / AUC (0-∞), individual rats No1-No3: concentration or dose not given beside the values
Method: We administered BH by gavage and intravenous administration to SD rats (male, 200–220 g, n = 6) after they had fasted for 12 h. For oral gavage, the BH was dissolved in DMSO/0.5% CMC-Na (5/95, v/v/), and for intravenous administration, it was dissolved in DMSO/0.9% NaCl (5/95, v/v/), and then the blood samples were collected at intervals to determine the pharmacokinetic (PK) profiles of SD rats.

Compound: CC1=CC(=O)[C@@H](O)[C@]2(C)[C@H]3[C@@H](O)[C@H](O)[C@@]4(CO)OC[C@@]35[C@@H](C[C@@H]12)OC(=O)[C@H](O)[C@]54O [BH, Bruceine H]
- concentration at 6 h (male, SD, rat, plasma, po, 10 mg/kg, p.o. 10 mg/kg, 6 h, read-out: Concentration of BH in rat plasma, Mean): 80.5 ng/mL
- concentration at 6 h (male, SD, rat, plasma, po, 10 mg/kg, p.o. 10 mg/kg, 6 h, read-out: Concentration of BH in rat plasma, individual rats No1-No3): 97.6 ng/mL
- concentration at 8 h (male, SD, rat, plasma, po, 10 mg/kg, p.o. 10 mg/kg, 8 h, read-out: Concentration of BH in rat plasma, Mean): 42.3 ng/mL
- concentration at 8 h (male, SD, rat, plasma, po, 10 mg/kg, p.o. 10 mg/kg, 8 h, read-out: Concentration of BH in rat plasma, individual rats No1-No3): 50.4 ng/mL
- concentration at 12 h (male, SD, rat, plasma, po, 10 mg/kg, p.o. 10 mg/kg, 12 h, read-out: Concentration of BH in rat plasma, Mean): 16.4 ng/mL
- concentration at 24 h (male, SD, rat, plasma, po, 10 mg/kg, p.o. 10 mg/kg, 24 h, read-out: Concentration of BH in rat plasma, Mean): 3.33 ng/mL
- AUC(0-t) (male, SD, rat, plasma, po, 10 mg/kg, rat, p.o., read-out: AUC (0-t), Mean): 961 ng·h/mL
- AUC(0-t) (male, SD, rat, plasma, po, 10 mg/kg, rat, p.o., read-out: AUC (0-t), individual rats No1-No3): 1070 ng·h/mL
- AUC(0-inf) (male, SD, rat, plasma, po, 10 mg/kg, rat, p.o., read-out: AUC (0-∞), Mean): 976 ng·h/mL
- concentration at 24 h (male, SD, rat, plasma, po, 10 mg/kg, rat, p.o., read-out: C_last, Mean): 2 ng/mL
- Cmax (male, SD, rat, plasma, po, 10 mg/kg, rat, p.o., read-out: Cmax, Mean): 147 ng/mL
- Cmax (male, SD, rat, plasma, po, 10 mg/kg, rat, p.o., read-out: Cmax, individual rats No2, No3): 145 ng/mL
- MRT inf (male, SD, rat, plasma, po, 10 mg/kg, rat, p.o., read-out: MRT (0-∞), Mean): 5.92 h
- MRT inf (male, SD, rat, plasma, po, 10 mg/kg, rat, p.o., read-out: MRT (0-∞), individual rats No1-No3): 5.5 h
- half-life (male, SD, rat, plasma, po, 10 mg/kg, rat, p.o., read-out: t1/2z, Mean (converted)): 3.35 h
- k el (male, SD, rat, plasma, po, 10 mg/kg, rat, p.o., read-out: λz, Mean (converted)): 6.89e-05 s⁻¹
- AUC(0-inf) (male, Sprague-Dawley (SD), rat, plasma, iv, 2 mg/kg, rat, i.v., read-out: AUC (0-∞), Mean): 1050 ng·h/mL
- MRT last (male, Sprague-Dawley (SD), rat, plasma, iv, 2 mg/kg, rat, i.v., read-out: MRT (0-t), Mean): 5.01 h
- MRT last (male, Sprague-Dawley (SD), rat, plasma, iv, 2 mg/kg, rat, i.v., read-out: MRT (0-t), individual rats No1-No3): 4.99 h
- AUC(0-inf) (male, Sprague-Dawley (SD), rat, plasma, po, 10 mg/kg, rat, p.o., read-out: AUC (0-∞), individual rats No1-No3): 1070 ng·h/mL
- MRT last (male, Sprague-Dawley (SD), rat, plasma, po, 10 mg/kg, rat, p.o., read-out: MRT (0-t), Mean): 5.54 h
- MRT last (male, Sprague-Dawley (SD), rat, plasma, po, 10 mg/kg, rat, p.o., read-out: MRT (0-t), individual rats No1-No3): 5.47 h
- bioavailability (male, rat, plasma, SD rats, 10 mg/kg po vs 2 mg/kg iv, read-out: Oral bioavailability (F)): 20.4%
- Tmax (male, rat, plasma, SD rats, 10 mg/kg po, read-out: Time of maximum concentration (T max)): 1 h
- Concentration of BH in rat plasma, individual rats No1-No3 (p.o. 10 mg/kg, 0.25 h, 10 mg/kg): 10.5 ng/mL and 11.3 ng/mL
- Concentration of BH in rat plasma, individual rats No1-No3 (p.o. 10 mg/kg, 0.5 h, 10 mg/kg): 55.4 ng/mL and 50.6 ng/mL
- Concentration of BH in rat plasma, individual rats No1-No3 (p.o. 10 mg/kg, 0.75 h, 10 mg/kg): 98.5 ng/mL and 104.2 ng/mL
- Concentration of BH in rat plasma, individual rats No1-No3 (p.o. 10 mg/kg, 1 h, 10 mg/kg): 145.3 ng/mL and 140.1 ng/mL
- Concentration of BH in rat plasma, individual rats No1-No3 (p.o. 10 mg/kg, 2 h, 10 mg/kg): 117.7 ng/mL and 120.4 ng/mL
- Concentration of BH in rat plasma, individual rats No1-No3 (p.o. 10 mg/kg, 4 h, 10 mg/kg): 99.4 ng/mL and 89.6 ng/mL
- Concentration of BH in rat plasma, individual rats No1-No3 (p.o. 10 mg/kg, 6 h, 10 mg/kg): 75.3 ng/mL and 68.5 ng/mL
- Concentration of BH in rat plasma, individual rats No1-No3 (p.o. 10 mg/kg, 8 h, 10 mg/kg): 35.4 ng/mL and 41.2 ng/mL
- Concentration of BH in rat plasma, individual rats No1-No3 (p.o. 10 mg/kg, 12 h, 10 mg/kg): 16.8 ng/mL and 10.4 ng/mL and 22.1 ng/mL
- Concentration of BH in rat plasma, individual rats No1-No3 (p.o. 10 mg/kg, 24 h, 10 mg/kg): 2.8 ng/mL and 1.8 ng/mL and 5.4 ng/mL
- AUC (0-t), individual rats No1-No3 (rat, i.v.): 883.761 ng·h/mL and 981.633 ng·h/mL
- AUC (0-∞), individual rats No1-No3 (rat, i.v.): 977.839 ng·h/mL and 1158.837 ng·h/mL
- AUMC (0-t), Mean (rat, i.v.): 4747.166 h*h*ng/mL
- AUMC (0-t), individual rats No1-No3 (rat, i.v.): 4816.632 h*h*ng/mL and 3928.001 h*h*ng/mL and 5496.865 h*h*ng/mL
- AUMC (0-∞), Mean (rat, i.v.): 9005.111 h*h*ng/mL
- AUMC (0-∞), individual rats No1-No3 (rat, i.v.): 6587.862 h*h*ng/mL and 7623.703 h*h*ng/mL and 12803.767 h*h*ng/mL
- C0, Mean (rat, i.v.): 516.231 ng/mL
- C0, individual rats No1-No3 (rat, i.v.): 543.621 ng/mL and 515.672 ng/mL and 489.401 ng/mL
- CLz, individual rats No1-No3 (rat, i.v.): 34.08878 mL/min/kg and 28.76447 mL/min/kg
- C_last, individual rats No1-No3 (rat, i.v.): 6.155 ng/mL and 10.282 ng/mL
- MRT (0-t), individual rats No1-No3 (rat, i.v.): 4.445 h and 5.6 h
- MRT (0-∞), individual rats No1-No3 (rat, i.v.): 7.796 h and 11.049 h
- R_AUC (t/∞), Mean (rat, i.v.): 89.967%
- R_AUC (t/∞), individual rats No1-No3 (rat, i.v.): 94.8% and 90.4% and 84.7%
- VRT (0-t), Mean (rat, i.v.): 33.805 h^2
- VRT (0-t), individual rats No1-No3 (rat, i.v.): 30.325 h^2 and 31.091 h^2 and 40 h^2
- VRT (0-∞), Mean (rat, i.v.): 157.741 h^2
- VRT (0-∞), individual rats No1-No3 (rat, i.v.): 73.322 h^2 and 156.114 h^2 and 243.787 h^2
- Vz, individual rats No1-No3 (rat, i.v.): 31.260167 L/kg and 29.744277 L/kg
- t1/2z, individual rats No1-No3 (rat, i.v.): 10.592 h and 11.943 h
- λz, individual rats No1-No3 (rat, i.v.): 0.065 h⁻¹ and 0.058 h⁻¹
- AUC (0-t), individual rats No1-No3 (rat, p.o.): 858.063 ng·h/mL and 958.688 ng·h/mL
- AUC (0-∞), individual rats No1-No3 (rat, p.o.): 858.682 ng·h/mL and 1001.201 ng·h/mL
- AUMC (0-t), Mean (rat, p.o.): 5336.656 h*h*ng/mL
- AUMC (0-t), individual rats No1-No3 (rat, p.o.): 5831.875 h*h*ng/mL and 4275.963 h*h*ng/mL and 5902.131 h*h*ng/mL
- AUMC (0-∞), Mean (rat, p.o.): 5811.834 h*h*ng/mL
- AUMC (0-∞), individual rats No1-No3 (rat, p.o.): 5879.636 h*h*ng/mL and 4292.741 h*h*ng/mL and 7263.126 h*h*ng/mL
- CLz, individual rat No1 (rat, p.o.): 155.9614 mL/min/kg
- C_last, individual rats No1-No3 (rat, p.o.): 0.506 ng/mL and 0.202 ng/mL and 5.305 ng/mL
- Cmax, individual rats No2, No3 (rat, p.o.): 140.1 ng/mL
- MRT (0-t), individual rats No1-No3 (rat, p.o.): 4.983 h and 6.156 h
- MRT (0-∞), individual rats No1-No3 (rat, p.o.): 4.999 h and 7.254 h
- R_AUC (t/∞), Mean (rat, p.o.): 98.5%
- R_AUC (t/∞), individual rats No1-No3 (rat, p.o.): 99.8% and 99.9% and 95.8%
- VRT (0-t), Mean (rat, p.o.): 19.306 h^2
- VRT (0-t), individual rats No1-No3 (rat, p.o.): 17.271 h^2 and 15.275 h^2 and 25.371 h^2
- VRT (0-∞), Mean (rat, p.o.): 29.291 h^2
- VRT (0-∞), individual rats No1-No3 (rat, p.o.): 18.047 h^2 and 15.623 h^2 and 54.204 h^2
- Vz, individual rat No1 (rat, p.o.): 32.202018 L/kg
- t1/2z, individual rats No1-No3 (rat, p.o.): 2.385 h and 2.122 h and 5.553 h
- λz, individual rats No1-No3 (rat, p.o.): 0.291 h⁻¹ and 0.327 h⁻¹ and 0.125 h⁻¹
